In patent publication US9650371B2, “Sulfur-containing heterocyclic derivative having beta secretase inhibitory activity” (Shionogi & Co., Ltd., priority 2008, dated 2017):

Target: human ether-a-go-go related gene (hERG) channel (Homo sapiens (Human), UniProt Q12809)
Assay: hERG test
Type: cell-based
Conditions: HEK293 cells expressing hERG, whole cell patch clamp, 10 minutes
Description: For the purpose of assessing risk of an electrocardiogram QT interval prolongation, effects on delayed rectifier K+ current (IKr), which plays an important role in the ventricular repolarization process, was studied using HEK293 cells expressing human ether-a-go-go related gene (hERG) channel.
After a cell was retained at a membrane potential of −80 mV by whole cell patch clamp method using an automated patch clamp system (PatchXpress 7000A, Axon Instruments Inc.), IKr induced by depolarization pulse stimulation at +50 mV for 2 seconds and, further, repolarization pulse stimulation at −50 mV for 2 seconds was recorded. […] From the recording IKr, an absolute value of the tail peak current was measured based on the current value at the resting membrane potential using an analysis software (DataXpress ver.1, Molecular Devices Corporation). Further, the % inhibition relative to the tail peak current before application of the test substance was calculated, and compared with the vehicle-applied group (0.1% dimethyl sulfoxide solution) to assess influence of the test substance on IKr.

human ether-a-go-go related gene (hERG) channel, sequence (Q12809 whole entry): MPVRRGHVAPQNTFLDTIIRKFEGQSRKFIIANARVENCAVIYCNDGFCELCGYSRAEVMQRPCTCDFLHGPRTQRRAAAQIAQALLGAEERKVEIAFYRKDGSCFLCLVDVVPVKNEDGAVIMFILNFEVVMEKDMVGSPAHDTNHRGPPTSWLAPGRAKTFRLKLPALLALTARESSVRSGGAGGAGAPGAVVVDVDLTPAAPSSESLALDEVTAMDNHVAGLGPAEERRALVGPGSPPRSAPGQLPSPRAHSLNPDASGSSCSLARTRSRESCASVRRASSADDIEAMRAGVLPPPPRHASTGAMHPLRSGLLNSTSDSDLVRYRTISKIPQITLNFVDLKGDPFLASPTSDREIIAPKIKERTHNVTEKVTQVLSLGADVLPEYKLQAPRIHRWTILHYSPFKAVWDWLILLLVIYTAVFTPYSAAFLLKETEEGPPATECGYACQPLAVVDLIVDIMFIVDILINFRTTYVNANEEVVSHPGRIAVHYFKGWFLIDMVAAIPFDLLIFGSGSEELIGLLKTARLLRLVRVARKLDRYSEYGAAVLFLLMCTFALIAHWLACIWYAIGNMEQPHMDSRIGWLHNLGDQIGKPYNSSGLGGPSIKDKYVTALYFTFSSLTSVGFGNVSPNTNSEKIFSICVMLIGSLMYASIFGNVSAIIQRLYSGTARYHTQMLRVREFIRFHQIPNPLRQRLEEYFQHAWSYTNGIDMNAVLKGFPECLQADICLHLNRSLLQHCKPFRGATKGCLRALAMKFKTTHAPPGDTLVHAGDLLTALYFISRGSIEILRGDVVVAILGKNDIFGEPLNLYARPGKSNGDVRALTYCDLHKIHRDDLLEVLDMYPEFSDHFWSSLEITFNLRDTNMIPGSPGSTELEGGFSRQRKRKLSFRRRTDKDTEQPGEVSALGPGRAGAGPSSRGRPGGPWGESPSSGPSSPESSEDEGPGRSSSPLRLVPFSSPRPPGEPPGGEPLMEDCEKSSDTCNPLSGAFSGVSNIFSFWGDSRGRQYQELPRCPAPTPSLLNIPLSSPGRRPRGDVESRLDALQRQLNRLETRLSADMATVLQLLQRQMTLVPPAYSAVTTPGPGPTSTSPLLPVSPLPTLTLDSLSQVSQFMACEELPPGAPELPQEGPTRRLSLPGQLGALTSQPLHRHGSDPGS

| SMILES | % inhibition of tail peak current (IKr) |
| --- | --- |
| C=C1C[C@@](C)(c2cc(NC(=O)c3cnc(OC)cn3)cnc2C)N=C(N)S1 [Compound 102] | 2.3% |
| CNC(=O)c1ccc(-c2ccc(F)c([C@]3(C)C=CSC(N)=N3)c2)cn1 [Compound 92] | 7.9% |
